{
  "source": "patent US10738041B2",
  "about": "“Ferroportin inhibitors” (Vifor (International) AG, priority 2015, dated 2020)",
  "key": {"[1]": {"test_system": "Hbb th3/+ mice", "assay": "Improvement of anemia, ineffective erythropoiesis and iron overload in a mouse model of β-thalassemia intermedia", "type": "in vivo", "conditions": "for Correction of anemia at day 20-48 (hemoglobin, difference to vehicle control) / Decrease in 58Fe spleen iron content / Decrease in blood reticulocyte counts / Decrease in leukocyte counts / Decrease in serum erythropoietin / Increase in blood erythrocyte counts / Increase in hematocrit / Prevention of liver 58Fe loading: 27 days (127) or 46 days (40); for Decrease in serum iron: Hbb th3/+ mice, % change to vehicle control", "procedure": "The efficacy of Fpn inhibitors was investigated using a mouse model of transfusion-independent β-thalassemia. Mice with heterozygous deletion of β1 and β2 globin genes (called Hbb th3/+ mice) develop transfusion-independent anemia, ineffective erythropoiesis, splenomegaly and secondary iron overload in spleen, liver and kidneys. […] Hbb th3/+ mice were dosed twice daily with either compound at 20 or 60 mg/kg or with methylcellulose (10 ml/kg, Sigma, Cat. 274429) as a vehicle. Between both doses mice had access to drinking water supplemented with 1 mM ^58Fe(II)-sulfate (Vifor Pharma, Batch No. ROR 3096) and 10 mM ascorbic acid (Sigma, Cat. 795437) for 6 h. […] Water without ^58Fe(II)-Sulfate and ascorbic acid was provided during the remaining 18 h. Dosing of Fpn inhibitors or vehicle followed by exposure to iron-containing water was repeated for 20 to 46 days in individual experiments.\nAdditional hematologic parameters were measured in terminal blood using automated blood cell analyzer.\nThe inefficient erythropoiesis of Hbb th3/+ mice causes excessive proliferation of erythroid precursors in spleen, leading to splenomegaly.\nElevated erythropoietin levels in Hbb th3/+ mice hduced overexpression of erythroferrone, an erythroid regulator hormone known to suppress hepcidin (Kautz L. et al, Nat. Genet., 2014). […] Erythroferrone is produced by erythrocyte precursors proliferating massively in spleens of Hbb th3/+ mice as a consequence of extramedullar erythropoiesis.\nIncreased iron demand due to inefficient erythropoiesis and chronically low hepcidin levels in patients with thalassemia causes organ iron loading and associated morbidities, such as hepatocellular carcinoma and heart failure (Rivella S. Haematologica, 2015). Hbb th3/+ mice absorb excessive amounts of iron as a consequence of inadequately low hepcidin levels relative to the high iron content in liver, spleen and kidney and increased ferroportin expression in duodenum (Gardenghi S., Blood, 2007).\nAdditionally, reactive oxygen species (ROS) were detected in bone marrow cells using a fluorescent indicator, CM-H2DCFDA (Thermo Fisher Scientific, Cat. C6827)."}, "[2]": {"target": "T1, ferroportin (Homo sapiens, UniProt Q9NP59)", "T1 construct": "host or cells: T47D cells", "T1 sequence (Q9NP59 1-571)": "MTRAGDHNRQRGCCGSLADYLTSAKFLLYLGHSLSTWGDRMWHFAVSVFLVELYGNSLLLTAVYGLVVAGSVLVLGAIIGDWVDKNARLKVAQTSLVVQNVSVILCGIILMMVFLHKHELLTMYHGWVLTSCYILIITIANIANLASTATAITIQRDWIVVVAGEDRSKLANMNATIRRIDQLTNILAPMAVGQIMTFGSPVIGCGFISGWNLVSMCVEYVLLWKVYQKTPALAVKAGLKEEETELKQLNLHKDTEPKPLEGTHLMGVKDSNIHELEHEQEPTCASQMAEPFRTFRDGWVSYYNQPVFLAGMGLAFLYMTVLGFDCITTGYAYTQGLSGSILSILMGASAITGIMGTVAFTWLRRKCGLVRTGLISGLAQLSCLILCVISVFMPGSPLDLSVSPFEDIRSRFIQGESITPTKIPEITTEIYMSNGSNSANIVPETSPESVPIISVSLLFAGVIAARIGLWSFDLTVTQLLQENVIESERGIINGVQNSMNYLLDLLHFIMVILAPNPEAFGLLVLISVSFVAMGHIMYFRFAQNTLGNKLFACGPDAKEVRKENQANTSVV", "assay": "Inhibition of Iron Efflux by Ferroportin Inhibitors", "type": "cell-based", "conditions": "T47D cells, 58Fe in supernatant, 20 h; representative (FIG. 2)", "procedure": "The activity of hepcidin and ferroportin inhibitor compounds regarding their ability to block iron export via ferroportin was tested on T47D cells (ECACC, Cat. 85102201) as described below.\nCells were plated in 24-well plates (Greiner, Cat. 662160) containing 350,000 cells/well and incubated overnight with 100 μM ^58Fe (^58Fe(II)-Sulfate, Vifor Pharma Batch No. ROR 3085) in 500 μM L-Ascorbic Acid (Sigma Aldrich, Cat. 795437) containing growth medium. […] A serial dilution of hepdicin (Bachem) or ferroportin inhibitors (4 μM-0.0064 μM, 5 fold dilution) was added in a total volume of 0.6 ml per well. Cells were incubated at 37° C. with 5% CO2 for 20 h. Supernatants were collected and ^58Fe was measured using inductively coupled plasma mass spectrometry (ICP-MS, Thermo Scientific, Element 2). Pellets were harvested for protein concentration measurements. Results are plotted as ng^58Fe in supernatant per mg protein in cell lysates."}},
  "data": [
    {"smiles": "O=C(NCc1ncccc1F)c1coc(CCNCCc2nc3ccccc3[nH]2)n1", "note": "[Example 127]", "values": [
      {"measurement": "Decrease in RDW", "setting": "[1]; 20 mg/kg twice daily, 27 days (127)", "value": 19, "unit": "%"},
      {"measurement": "Correction of anemia at day 20-48 (hemoglobin, difference to vehicle control)", "setting": "[1]; 20 mg/kg twice daily", "value": 12, "unit": "g/L"},
      {"measurement": "Decrease in 58Fe spleen iron content", "setting": "[1]; 20 mg/kg twice daily", "value": 43, "unit": "%"},
      {"measurement": "Decrease in blood reticulocyte counts", "setting": "[1]; 20 mg/kg twice daily", "value": 16, "unit": "%"},
      {"measurement": "Decrease in leukocyte counts", "setting": "[1]; 20 mg/kg twice daily", "value": 46, "unit": "%"},
      {"measurement": "Decrease in serum erythropoietin", "setting": "[1]; 20 mg/kg twice daily", "value": 32, "unit": "%"},
      {"measurement": "Increase in blood erythrocyte counts", "setting": "[1]; 20 mg/kg twice daily", "value": 0, "unit": "%"},
      {"measurement": "Increase in hematocrit", "setting": "[1]; 20 mg/kg twice daily", "value": 3, "unit": "%"},
      {"measurement": "Prevention of liver 58Fe loading", "setting": "[1]; 20 mg/kg twice daily", "value": 39, "unit": "%"},
      {"measurement": "Decrease in serum iron", "setting": "[1]; 20 mg/kg", "value": 68, "unit": "%"},
      {"measurement": "Decrease in RDW", "setting": "[1]; 60 mg/kg twice daily, 27 days (127)", "value": 25, "unit": "%"},
      {"measurement": "Correction of anemia at day 20-48 (hemoglobin, difference to vehicle control)", "setting": "[1]; 60 mg/kg twice daily", "value": 20, "unit": "g/L"},
      {"measurement": "Decrease in 58Fe spleen iron content", "setting": "[1]; 60 mg/kg twice daily", "value": 68, "unit": "%"},
      {"measurement": "Decrease in blood reticulocyte counts", "setting": "[1]; 60 mg/kg twice daily", "value": 61, "unit": "%"},
      {"measurement": "Decrease in leukocyte counts", "setting": "[1]; 60 mg/kg twice daily", "value": 66, "unit": "%"},
      {"measurement": "Decrease in serum erythropoietin", "setting": "[1]; 60 mg/kg twice daily", "value": 33, "unit": "%"},
      {"measurement": "Increase in blood erythrocyte counts", "setting": "[1]; 60 mg/kg twice daily", "value": 36, "unit": "%"},
      {"measurement": "Increase in hematocrit", "setting": "[1]; 60 mg/kg twice daily", "value": 20, "unit": "%"},
      {"measurement": "Prevention of liver 58Fe loading", "setting": "[1]; 60 mg/kg twice daily", "value": 59, "unit": "%"},
      {"measurement": "Decrease in serum iron", "setting": "[1]; 60 mg/kg", "value": 81, "unit": "%"},
      {"measurement": "Decreased in ROS in bone marrow erythrocytes", "setting": "[1]; second value of the cell (60 mg/kg) twice daily, 27 days (127)", "value": "NA/75%"},
      {"measurement": "IC50", "setting": "[2]", "value": 80, "unit": "nM"}
    ]},
    {"smiles": "CC[C@H](C)[C@@H]1NC(=O)[C@@H](NC(=O)[C@@H](NC(=O)[C@@H]2CCCN2C(=O)[C@H](Cc2ccccc2)NC(=O)[C@H](Cc2c[nH]cn2)NC(=O)[C@@H](NC(=O)[C@@H](N)CC(=O)O)[C@@H](C)O)[C@@H](C)CC)CSSC[C@@H](C(=O)N[C@@H](CCCCN)C(=O)N[C@H](C(=O)O)[C@@H](C)O)NC(=O)[C@@H]2CSSC[C@@H]3NC(=O)[C@@H]4CSSC[C@H](NC(=O)[C@H](Cc5ccccc5)NC1=O)C(=O)N[C@@H](CSSC[C@H](NC(=O)[C@H](CCCCN)NC(=O)[C@H](CO)NC(=O)[C@H](CCCNC(=N)N)NC(=O)[C@H](Cc1c[nH]cn1)NC3=O)C(=O)NCC(=O)N[C@@H](CCSC)C(=O)N2)C(=O)NCC(=O)N4", "note": "[hepcidin, reference compound]", "values": [
      {"measurement": "IC50", "setting": "[2]", "value": 86, "unit": "nM"}
    ]}
  ]
}
